Molecules are shown by their SMILES.

For one assay, the system named is IL-1β release from THP-1 cells. Kind of assay: IL-1β Release Assay (Alternate Method), THP-1 cells. It is filed as cell-based, human. As to conditions: Homo sapiens, THP-1, read-out: IL-1β % inhibition. In short, it runs like this:
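IL-1β release, measured by ELISA, follows 45 min BzATP (250 uM final) stimulation of THP-1 cells given 30 min compound pretreatment. Cells were first primed 16 h with LPS and IFN-γ (100 ng/mL each), then 2 h with fresh LPS; inhibition expressed in percent after background correction.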
Regarding `O=C(Nc1ncnc2c1CCN(Cc1ccccc1)C2)C12CC3CC(CC(C3)C1)C2` [Compound 334, Adamantane-1-carboxylic acid(7-benzyl-5,6,7,8-tetrahydro-pyrido[3,4-d]pyrimidin-4-yl)-amide], the inhibition (in general, the relative decrease from the control value, in per cent) at 0.3 µM lay within 50 to 75%.

Still in this assay, the particulars now being: at 0.3 μM; THP-1 cells.
As to `CCN1CCc2c(ncnc2NC(=O)CC23CC4CC(CC(C4)C2)C3)C1` [Compound 8], the IL-1β % inhibition entry is “+ (compound exhibited 0-25% inhibition at 0.3 μM)”.
As for `O=C(CC1CCCCCC1)Nc1ncnc2c1CCN(Cc1ccccn1)C2` [Compound 94], the IL-1β % inhibition entry is on record as “+ (compound exhibited 0-25% inhibition at 0.3 μM)”.
As for `O=C(CC12CC3CC(CC(C3)C1)C2)Nc1ncnc2c1CCN(Cc1ccc(F)c(C(F)(F)F)c1)C2` [Compound 106], the IL-1β % inhibition entry is listed as “+ (compound exhibited 0-25% inhibition at 0.3 μM)”.
Take `Cc1ccc(CN2CCc3c(ncnc3NC(=O)CC34CC5CC(CC(C5)C3)C4)C2)s1` [Compound 66]: the IL-1β % inhibition entry is reported as “+ (compound exhibited 0-25% inhibition at 0.3 μM)”.
Turning to `O=C(CC12CC3CC(CC(C3)C1)C2)Nc1ncnc2c1CCN(C(=O)c1cc(F)cc(C(F)(F)F)c1)C2` [Compound 267], the IL-1β % inhibition result is listed as “++ (compound exhibited 25-50% inhibition at 0.3 μM)”.
As for `O=C(NCC1CCCCC1)c1ncnc2c1CCN(Cc1ccccc1)C2` [Compound 4], the IL-1β % inhibition entry is listed as “+ (compound exhibited 0-25% inhibition at 0.3 μM)”.
Still for that read-out and setting: in the case of `Cc1ccc(CN2CCc3c(ncnc3NC(=O)CC34CC5CC(CC(C5)C3)C4)C2)c2ccccc12` [Compound 112] it was “+ (compound exhibited 0-25% inhibition at 0.3 μM)”; in that of `O=C(CC12CC3CC(CC(C3)C1)C2)Nc1ncnc2c1CCN(Cc1ccc(Cl)c(F)c1)C2` [Compound 329], “+++ (compound exhibited 50-75% inhibition at 0.3 μM)”.
As for `O=C(NCC1CCCCC1)c1ncnc2c1CCNC2` [Compound 2], the IL-1β % inhibition entry is on record as “+ (compound exhibited 0-25% inhibition at 0.3 μM)”.
Still for that read-out and setting: in the case of `O=C(CC12CC3CC(CC(C3)C1)C2)Nc1ncnc2c1CCN(Cc1ccc(Cl)cc1)C2` [Compound 41] it was “+ (compound exhibited 0-25% inhibition at 0.3 μM)”; in that of `O=C(Cc1ccccc1)N1CCc2c(ncnc2NC(=O)C23CC4CC(CC(C4)C2)C3)C1` [Compound 398], “+++ (compound exhibited 50-75% inhibition at 0.3 μM)”.
In the case of `O=C(CC12CC3CC(CC(C3)C1)C2)Nc1ncnc2c1CCN(C(=O)c1ccc(Cl)c(Cl)c1)C2` [Compound 245], the IL-1β % inhibition entry was “+++ (compound exhibited 50-75% inhibition at 0.3 μM)”.
Still for that read-out and setting: in the case of `O=C(CC1CCCCC1)Nc1ncnc2c1CCN(CCCO)C2` [Compound 21] it was “+ (compound exhibited 0-25% inhibition at 0.3 μM)”.
Take `CC(C)(C(=O)Nc1ncnc2c1CCN(Cc1ccccc1)C2)C12CC3CC(CC(C3)C1)C2` [Compound 339]: the IL-1β % inhibition result was “+ (compound exhibited 0-25% inhibition at 0.3 μM)”.
Still for that read-out and setting: for `Cc1ccc(F)c(CN2CCc3c(ncnc3NC(=O)CC34CC5CC(CC(C5)C3)C4)C2)c1Cl` [Compound 88] the value was “+++ (compound exhibited 50-75% inhibition at 0.3 μM)”; for `CC12CC3(C)CC(C)(C1)CC(C(C)(C)C(=O)Nc1ncnc4c1CCN(Cc1ccccc1)C4)(C2)C3` [Compound 345], “+ (compound exhibited 0-25% inhibition at 0.3 μM)”; for `COc1cccc(S(=O)(=O)N2CCc3c(ncnc3NC(=O)CC34CC5CC(CC(C5)C3)C4)C2)c1` [Compound 162], “+ (compound exhibited 0-25% inhibition at 0.3 μM)”.
For the compound `O=C(CC12CC3CC(CC(C3)C1)C2)Nc1ncnc2c1CCN(C(=O)c1c(F)cccc1Cl)C2` [Compound 272], the IL-1β % inhibition entry was “++++ (compound exhibited 75% or greater inhibition at 0.3 μM)”.
`CC12CC3CC(C)(C1)CC(CC(=O)Nc1ncnc4c1CCN(Cc1ccccc1F)C4)(C3)C2` [Compound 371]: the IL-1β % inhibition result is recorded as “+++ (compound exhibited 50-75% inhibition at 0.3 μM)”.
Still for that read-out and setting: in the case of `CC12CC3CC(C)(C1)CC(CC(=O)Nc1ncnc4c1CCN(S(=O)(=O)Cc1ccccc1)C4)(C3)C2` [Compound 377] it was “++++ (compound exhibited 75% or greater inhibition at 0.3 μM)”.
`O=C(NCC1(O)CCCCCC1)c1ncnc2c1CCN(Cc1ccccc1)C2` [Compound 58]: the IL-1β % inhibition result is reported as “+ (compound exhibited 0-25% inhibition at 0.3 μM)”.
Regarding `COc1ccc(CC(=O)N2CCc3c(ncnc3NC(=O)CC34CC5CC(CC(C5)C3)C4)C2)cc1` [Compound 224], the IL-1β % inhibition result is “+ (compound exhibited 0-25% inhibition at 0.3 μM)”.
Regarding `CC(C)(C(=O)Nc1ncnc2c1CCN(C(=O)CC1CCCC1)C2)C12CC3CC(CC(C3)C1)C2` [Compound 365], the IL-1β % inhibition result was “+ (compound exhibited 0-25% inhibition at 0.3 μM)”.
For the compound `O=C(CC12CC3CC(CC(C3)C1)C2)Nc1ncnc2c1CCN(C(=O)c1c(F)cccc1F)C2` [Compound 247], the IL-1β % inhibition result was “++++ (compound exhibited 75% or greater inhibition at 0.3 μM)”.
For the compound `O=C(CC12CC3CC(CC(C3)C1)C2)Nc1ncnc2c1CCN(Cc1cccc(C(F)(F)F)c1)C2` [Compound 70], the IL-1β % inhibition result is “+ (compound exhibited 0-25% inhibition at 0.3 μM)”.
Turning to `Cc1cccc(C(=O)N2CCc3c(ncnc3NC(=O)C34CC5CC(CC(C5)C3)C4)C2)c1` [Compound 403], the IL-1β % inhibition entry was “++ (compound exhibited 25-50% inhibition at 0.3 μM)”.
For the compound `O=C(CC12CC3CC(CC(C3)C1)C2)Nc1ncnc2c1CCN(Cc1ccc(C(F)(F)F)cc1F)C2` [Compound 110], the IL-1β % inhibition result is recorded as “+ (compound exhibited 0-25% inhibition at 0.3 μM)”.

Staying with this assay, now noted: at 0.3 μM; THP-1 cells, BzATP-stimulated.
With `O=C(Nc1ncnc2c1CCN(CC1CCCCC1)C2)C12CC3CC(CC(C3)C1)C2` [Compound 556], the IL-1β % inhibition entry is listed as “+ (compound exhibited 0-25% inhibition at 0.3 μM)”.
The same measure, in the same setting: in the case of `O=C(Nc1ncnc2c1CCN(S(=O)(=O)c1ccccc1F)C2)C12CC3CC(CC(C3)C1)C2` [Compound 501] it was “++ (compound exhibited 25-50% inhibition at 0.3 μM)”; in that of `CCCN1CCc2c(ncnc2NC(=O)C23CC4CC(CC(C4)C2)C3)C1` [Compound 555], “+ (compound exhibited 0-25% inhibition at 0.3 μM)”; in that of `O=C(c1ccc(C(F)(F)F)cc1F)N1CCc2c(ncnc2NC(=O)C23CC4CC(CC(C4)C2)C3)C1` [Compound 438], “++ (compound exhibited 25-50% inhibition at 0.3 μM)”.
As to `O=C(Nc1ncnc2c1CCN(Cc1cccc3c1OCO3)C2)C12CC3CC(CC(C3)C1)C2` [Compound 596], the IL-1β % inhibition entry is listed as “+++ (compound exhibited 50-75% inhibition at 0.3 μM)”.
As for `COc1ccc(OC)c(S(=O)(=O)N2CCc3c(ncnc3NC(=O)C34CC5CC(CC(C5)C3)C4)C2)c1` [Compound 549], the IL-1β % inhibition result is given as “++ (compound exhibited 25-50% inhibition at 0.3 μM)”.
Take `N#Cc1cc(CN2CCc3c(ncnc3NC(=O)C34CC5CC(CC(C5)C3)C4)C2)ccc1F` [Compound 595]: the IL-1β % inhibition entry is recorded as “+ (compound exhibited 0-25% inhibition at 0.3 μM)”.
Consider `COc1cccc(S(=O)(=O)N2CCc3c(ncnc3NC(=O)C34CC5CC(CC(C5)C3)C4)C2)c1` [Compound 498], for which the IL-1β % inhibition entry is listed as “+ (compound exhibited 0-25% inhibition at 0.3 μM)”.
Regarding `O=C(Nc1ncnc2c1CCN(Cc1ccc3c(c1)OC(F)(F)O3)C2)C12CC3CC(CC(C3)C1)C2` [Compound 627], the IL-1β % inhibition result was “++++ (compound exhibited 75% or greater inhibition at 0.3 μM)”.

The values are drawn from patent US7297700B2, “Bicycloheteroaryl compounds as P2X7 modulators and uses thereof” (Renovis, Inc., priority 2005, dated 2007).
